The values below come from US20260226049A1, “NITROGEN-CONTAINING HETEROCYCLIC COMPOUND, PREPARATION METHOD THEREFOR, AND USE THEREOF” (BIVISION PHARMACEUTICALS, INC, priority 2023, published 2026).

Experiment [1] has as its target T1, recombinant human fibroblast activation protein (FAP) (Homo sapiens, UniProt Q12884).
T1 sequence (Q12884 1-760): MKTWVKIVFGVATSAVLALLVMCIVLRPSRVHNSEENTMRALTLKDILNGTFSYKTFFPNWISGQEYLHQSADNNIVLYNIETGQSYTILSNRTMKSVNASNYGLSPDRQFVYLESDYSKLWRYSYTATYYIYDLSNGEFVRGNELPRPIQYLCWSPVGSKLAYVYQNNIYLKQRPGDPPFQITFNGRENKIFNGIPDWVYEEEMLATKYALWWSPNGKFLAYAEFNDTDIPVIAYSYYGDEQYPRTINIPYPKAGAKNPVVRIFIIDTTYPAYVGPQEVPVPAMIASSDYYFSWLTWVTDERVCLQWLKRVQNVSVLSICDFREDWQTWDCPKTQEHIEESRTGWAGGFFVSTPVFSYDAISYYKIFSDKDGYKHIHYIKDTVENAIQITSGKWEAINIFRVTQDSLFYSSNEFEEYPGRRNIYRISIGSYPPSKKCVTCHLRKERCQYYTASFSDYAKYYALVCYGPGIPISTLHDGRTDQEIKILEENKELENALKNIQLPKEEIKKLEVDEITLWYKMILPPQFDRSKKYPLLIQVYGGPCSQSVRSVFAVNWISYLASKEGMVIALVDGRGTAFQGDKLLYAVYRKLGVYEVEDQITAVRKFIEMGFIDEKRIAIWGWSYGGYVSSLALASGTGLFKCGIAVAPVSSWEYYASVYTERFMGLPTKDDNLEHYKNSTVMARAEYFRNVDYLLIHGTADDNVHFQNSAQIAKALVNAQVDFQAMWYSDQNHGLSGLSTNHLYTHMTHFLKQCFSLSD
The experiment is described as follows: Selective assay, protease inhibition (FAP). Format: biochemical. Particulars: substrate Z-Gly-Pro-AMC. The method, then:
(§1) The specificity of the synthesized compounds against recombinant human dipeptidyl peptidase IV (DPPIV), fibroblast activation protein (FAP), or prolyl oligopeptidase (PREP) was expressed by their half-maximal inhibitory concentration (IC50) against the proteases.
(§2) 1) The synthesized compound was dissolved in DMSO to a final concentration of 100 mM.
a) For FAP assay: The test compound was diluted to a 1 mM solution using a buffer of 50 mM Tris, 140 mM NaCl at pH 7.5.
(§3) 2) The prepared 1 mM test compound solution was serially diluted (1:10) into a row of a 96-well plate using the corresponding buffer mentioned above.
(§4) 3) The substrate was prepared as a DMSO stock solution (FAP and PREP: 2.5 mM Z-Gly-Pro-AMC (VWR, Cat. No. I-1145.0050BA) in DMSO; DPPIV: 100 mM Gly-Pro-AMC (VWR, Cat. No. 100042-646) in DMSO), and subsequently the substrate stock solution was diluted 20-fold using the corresponding buffer mentioned above.
(§5) 4) The enzyme was diluted into the appropriate assay buffer. The final concentrations of DPPIV, FAP, and PREP were […], respectively. To each required well in columns 2-10, 180 μL was added separately. Column 1 (A, B, C) was prepared with 200 μL of the appropriate assay buffer as a control. […]
(§6) 7) Fluorescence was measured at λex: 380, λem: 460. […]

Experiment [2] has as its target recombinant human dipeptidyl peptidase IV (DPPIV) (Homo sapiens, UniProt P27487). In words: Selective assay, protease inhibition (DPPIV). The experiment is classed as biochemical. The following applies: substrate Gly-Pro-AMC; read-out: pIC50 (DPPIV) (converted). The method, then: as §1, §2
b) For DPPIV assay: The test compound was diluted to a 1 mM solution using a buffer of 25 mM Tris, 250 mM NaCl at pH 7.5.
as §3, §4, §5, §6

Sequence of recombinant human dipeptidyl peptidase IV (DPPIV) (P27487 whole entry): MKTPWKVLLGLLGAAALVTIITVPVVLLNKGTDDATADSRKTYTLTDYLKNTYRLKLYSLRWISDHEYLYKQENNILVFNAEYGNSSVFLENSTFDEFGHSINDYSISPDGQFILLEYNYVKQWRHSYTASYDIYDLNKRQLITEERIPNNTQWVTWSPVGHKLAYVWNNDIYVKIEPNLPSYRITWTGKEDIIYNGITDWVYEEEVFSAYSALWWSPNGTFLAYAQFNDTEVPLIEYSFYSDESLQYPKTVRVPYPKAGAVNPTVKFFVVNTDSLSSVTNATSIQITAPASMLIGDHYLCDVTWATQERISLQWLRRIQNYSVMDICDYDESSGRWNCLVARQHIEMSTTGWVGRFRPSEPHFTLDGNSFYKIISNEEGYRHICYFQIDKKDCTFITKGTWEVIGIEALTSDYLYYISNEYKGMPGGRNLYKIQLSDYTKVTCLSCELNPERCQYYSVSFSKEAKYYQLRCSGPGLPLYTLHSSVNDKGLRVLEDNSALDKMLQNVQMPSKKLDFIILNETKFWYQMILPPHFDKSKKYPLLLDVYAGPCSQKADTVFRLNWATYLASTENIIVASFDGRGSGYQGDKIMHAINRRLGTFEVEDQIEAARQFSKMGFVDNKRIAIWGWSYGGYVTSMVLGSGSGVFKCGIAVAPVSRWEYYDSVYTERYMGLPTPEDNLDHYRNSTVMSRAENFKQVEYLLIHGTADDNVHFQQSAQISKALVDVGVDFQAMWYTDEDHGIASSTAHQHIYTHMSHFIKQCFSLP

Regarding `N#C[C@@H]1CC(F)(F)CN1C(=O)CNC(=O)c1cccc2c1CCN(C(=O)CCC(=O)NCCNC(=O)CCC(C(=O)O)N1CCN(CC(=O)O)CCN(CC(=O)O)CCN(CC(=O)O)CC1)C2` (some centres unmarked) [JHH5], the IC50 was 10 to 100 nM in experiment [1] and more than 1000 nM in experiment [2].
